# Biological target: T1, TAAR1 receptor (UniProt Q96RJ0)
# T1 sequence (Q96RJ0 1-339): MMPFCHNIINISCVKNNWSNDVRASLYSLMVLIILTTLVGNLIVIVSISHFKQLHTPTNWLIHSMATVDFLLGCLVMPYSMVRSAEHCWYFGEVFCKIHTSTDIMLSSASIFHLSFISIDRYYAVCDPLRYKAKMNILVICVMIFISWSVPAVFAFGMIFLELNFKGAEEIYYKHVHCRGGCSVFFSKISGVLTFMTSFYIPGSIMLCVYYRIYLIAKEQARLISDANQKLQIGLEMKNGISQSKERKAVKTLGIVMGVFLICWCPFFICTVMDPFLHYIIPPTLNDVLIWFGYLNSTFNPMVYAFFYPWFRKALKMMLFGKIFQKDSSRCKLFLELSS
# Experiment: TAAR1 Agonist cAMP Assay
# Type: cell-based, human or mouse
# Conditions: CHO-K1 cells expressing TAAR1; cAMP HTRF; 30 minutes at room temperature
# Description: CHO-K1 cells expressing the human TAAR1 receptor (Accession number NP_612200.1) or mouse TAAR1 receptor (Accession number NP_444435.1) were grown in media (Advanced DMEM supplemented with 1% dialyzed fetal bovine serum) without antibiotics. The cells were detached by gentle flushing with phosphate buffered saline containing 5 mM EDTA, recovered by centrifugation and resuspended in assay buffer (Krebs-Ringers Henseleit buffer: 5 mM KCl, 1.25 mM MgSO4, 124 mM NaCl, 25 mM HEPES, 13.3 mM Glucose, 1.25 mM KH2PO4, 1.45 mM CaCl2, 0.5 g/L BSA, supplemented with 1 mM isobutylmethylxanthine). Testing was performed in 384-well plates. 5 μl of cells (3000 cells) were mixed with 5 μl of the test compound diluted in assay buffer and then incubated for 30 minutes at room temperature. cAMP levels were determined using the Cisbio cAMP Gs dynamic HTRF kit (Cisbio, Bedford, MA). The results of the testing are shown in Table 3, with EC50 ranges designated as follows: • A=0.1 μM to 1 μM • B=0.01 μM to <0.1 μM • C=0.001 μM to <0.01 μM • D=0.0001 μM to <0.001 μM
row,EC50,SMILES
1,1 to 10 nM,"Cc1ccncc1-c1cccc2c1OCC[C@H]2CN [Compound 5, (R)-(8-(4-methylpyridin-3-yl)chroman-4-yl)methanamine]"
2,1 to 10 nM,"Cc1cc(C)c(-c2cccc3c2OCC[C@H]3CN)cn1 [Compound 29, 1-[(4R)-8-(4,6-dimethylpyridin-3-yl)-3,4-dihydro-2H-1-benzopyran-4-yl]methanamine]"
3,10 to 100 nM,CNC[C@@H]1CCOc2c(-c3ccnc(C)c3C)cccc21 [Compound 42]
4,1 to 10 nM,"CNC[C@@H]1CCOc2c(-c3cnn(C)c3)cccc21 [Compound 54, (R)—N-methyl-1-(8-(1-methyl-1H-pyrazol-4-yl)chroman-4-yl)methanamine]"
5,1 to 10 nM,NC[C@@H]1CCOc2c(-c3cncnc3)cccc21 [Compound 31]
6,1 to 10 nM,NC[C@@H]1CCOc2c(-c3ccnnc3)cccc21 [Compound 40]
7,10 to 100 nM,"CNC[C@@H]1CCOc2c(-c3ccn(C)n3)cccc21 [Compound 55, (R)—N-methyl-1-(8-(1-methyl-1H-pyrazol-3-yl)chroman-4-yl)methanamine]"
8,10 to 100 nM,"CNC[C@H]1CCOc2c(-c3ccnc(C)c3)cccc21 [Compound 16, (S)—N-methyl-1-(8-(2-methylpyridin-4-yl)chroman-4-yl)methanamine]"
9,10 to 100 nM,"CNC[C@@H]1CCOc2c(-c3ccc(C(F)(F)F)nc3)cccc21 [Compound 8, methyl({[(4R)-8-[6-(trifluoromethyl)pyridin-3-yl]-3,4-dihydro-2H-1-benzopyran-4-yl]methyl})amine]"
10,1 to 10 nM,Cn1cncc1-c1cccc2c1OCC[C@H]2CN [Compound 36]
11,1 to 10 nM,CNC[C@@H]1CCOc2c(-c3cncnc3)cccc21 [Compound 32]
12,0.1 to 1 nM,"Cc1ccc(-c2cccc3c2OCC[C@H]3CN)cn1 [Compound 13, (R)-(8-(6-methylpyridin-3-yl)chroman-4-yl)methanamine]"
13,1 to 10 nM,"CNC[C@@H]1CCOc2c(-c3ccc(C)nc3)cccc21 [Compound 14, (R)—N-methyl-1-(8-(6-methylpyridin-3-yl)chroman-4-yl)methanamine]"
14,1 to 10 nM,"Cc1cnccc1-c1cccc2c1OCC[C@H]2CN [Compound 20, (R)-(8-(3-methylpyridin-4-yl)chroman-4-yl)methanamine]"
15,10 to 100 nM,"CNC[C@@H]1CCOc2c(-c3ccncc3C)cccc21 [Compound 21, methyl({[(4R)-8-(3-methylpyridin-4-yl)-3,4-dihydro-2H-1-benzopyran-4-yl]methyl})amine]"
16,10 to 100 nM,Cc1ncc(-c2cccc3c2OCC[C@H]3CN)cn1 [Compound 26]
17,10 to 100 nM,NC[C@@H]1CCOc2c(-c3cnccn3)cccc21 [Compound 34]
18,1 to 10 nM,"CNCC1CCOc2c(-c3cnccc3C)cccc21 (stereo in doubt) [Compound 6, (R)—N-methyl-1-(8-(4-methylpyridin-3-yl)chroman-4-yl)methanamine]"
19,1 to 10 nM,CNC[C@@H]1CCOc2c(-c3ccnc(C(F)(F)F)c3)cccc21 [Compound 10]
20,10 to 100 nM,"CNC[C@@H]1CCOc2c(-c3nccs3)cccc21 [Compound 56, (R)—N-methyl-1-(8-(thiazol-2-yl)chroman-4-yl)methanamine]"
21,0.1 to 1 nM,NC[C@@H]1CCOc2c(-c3cncs3)cccc21 [Compound 38]
22,1 to 10 nM,"Cc1cc(-c2cccc3c2OCC[C@@H]3CN)ccn1 [Compound 15, (S)-(8-(2-methylpyridin-4-yl)chroman-4-yl)methanamine]"
23,1 to 10 nM,CNC[C@@H]1CCOc2c(-c3cc(C)ncc3C)cccc21 [Compound 33]
24,1 to 10 nM,"CNC[C@@H]1CCOc2c(-c3ccnc(C)c3)cccc21 [Compound 18, (R)—N-methyl-1-(8-(2-methylpyridin-4-yl)chroman-4-yl)methanamine]"

row,EC50,SMILES
1,1 to 10 nM,"CNC[C@@H]1CCOc2c(-c3cnc[nH]3)cccc21 [Compound 45, {[(4R)-8-(1H-imidazol-5-yl)-3,4-dihydro-2H-1-benzopyran-4-yl]methyl}(methyl)amine]"
2,10 to 100 nM,CNC[C@@H]1CCOc2c(-c3cncn3C)cccc21 [Compound 37]
3,0.1 to 1 nM,"NC[C@@H]1CCOc2c(-c3ccnc(C(F)(F)F)c3)cccc21 [Compound 9, 1-[(4R)-8-[2-(trifluoromethyl)pyridin-4-yl]-3,4-dihydro-2H-1-benzopyran-4-yl]methanamine]"
4,100 to 1000 nM,CNC[C@@H]1CCOc2c(-c3cnc(C)nc3)cccc21 [Compound 43]
5,1 to 10 nM,"NC[C@@H]1CCOc2c(-c3cnc[nH]3)cccc21 [Compound 44, 1-[(4R)-8-(1H-imidazol-5-yl)-3,4-dihydro-2H-1-benzopyran-4-yl]methanamine]"
6,10 to 100 nM,CNC[C@@H]1CCOc2c(-c3cnccn3)cccc21 [Compound 35]
7,1 to 10 nM,CNC[C@@H]1CCOc2c(-c3cnn(C)c3C)cccc21 [Compound 48]
8,1 to 10 nM,"Cc1cc(-c2cccc3c2OCC[C@H]3CN)ccn1 [Compound 17, (R)-(8-(2-methylpyridin-4-yl)chroman-4-yl)methanamine]"
9,1 to 10 nM,CNC[C@@H]1CCOc2c(-c3cncs3)cccc21 [Compound 39]
10,1 to 10 nM,"CNC[C@@H]1CCOc2c(-c3ccc(F)cc3)cccc21 [Compound 53, (R)-1-(8-(4-fluorophenyl)chroman-4-yl)-N-methylmethanamine]"
11,1 to 10 nM,"Cc1cc(-c2cccc3c2OCC[C@H]3CN)c(C)cn1 [Compound 19, (R)-(8-(2,5-dimethylpyridin-4-yl)chroman-4-yl)methanamine]"
12,1 to 10 nM,"CNC[C@@H]1CCOc2c(-c3cnsc3)cccc21 [Compound 57, (R)-1-(8-(isothiazol-4-yl)chroman-4-yl)-N-methylmethanamine]"
13,10 to 100 nM,CNC[C@@H]1CCOc2c(-c3cccnc3C)cccc21 [Compound 28]
14,100 to 1000 nM,"CNC[C@@H]1CCOc2c(-c3ccncc3OC)cccc21 [Compound 12, (R)-1-(8-(3-methoxypyridin-4-yl)chroman-4-yl)-N-methylmethanamine]"
15,0.1 to 1 nM,NC[C@@H]1CCOc2c(-c3cccnc3)cccc21 [Compound 22]
16,1 to 10 nM,CNC[C@@H]1CCOc2c(-c3cscn3)cccc21 [Compound 50]
17,10 to 100 nM,"NC[C@@H]1CCOc2c(-c3ccc(C(F)(F)F)nc3)cccc21 [Compound 7, 1-[(4R)-8-[6-(trifluoromethyl)pyridin-3-yl]-3,4-dihydro-2H-1-benzopyran-4-yl]methanamine]"
18,1 to 10 nM,"COc1cnccc1-c1cccc2c1OCC[C@H]2CN [Compound 11, [(4R)-8-(3-methoxypyridin-4-yl)-3,4-dihydro-2H-1-benzopyran-4-yl]methanamine]"
19,10 to 100 nM,CNC[C@H]1CCOc2c(-c3cccnc3)cccc21 [Compound 25]
20,10 to 100 nM,Cc1ncccc1-c1cccc2c1OCC[C@H]2CN [Compound 27]
21,10 to 100 nM,NC[C@H]1CCOc2c(-c3cccnc3)cccc21 [Compound 24]
22,10 to 100 nM,"Cc1nccc(-c2cccc3c2OCC[C@H]3CN)c1C [Compound 30, (R)-(8-(2,3-dimethylpyridin-4-yl)chroman-4-yl)methanamine]"
23,10 to 100 nM,CNC[C@@H]1CCOc2c(-c3ccnnc3)cccc21 [Compound 41]
24,10 to 100 nM,CNC[C@@H]1CCOc2c(-c3cn(C)nc3C)cccc21 [Compound 49]

# — patent US20240150330A1, “CHROMANS AND BENZOFURANS AS 5-HT1A AND TAAR1 AGONISTS” (Sunovion Pharmaceuticals Inc., priority 2021, published 2024)
